Source: ChEMBL document CHEMBL1201862, “PubChem BioAssay data set” (2004)
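The compound was tested at five concentrations on cells cultured in 96-well plates, with a 48-hour exposure period. GI50 is the concentration that inhibits growth by half.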 The source made the active and inactive calls. No stated cut-off is given here; in the data, active = GI50 up to about 1.1 µM and inactive = higher.

How the values were obtained:
Experiment in all cases: NCI anticancer screen, dose series, 48 h
[1] = tested on: NCI-H522
[2] = tested on: MDA-MB-231
[3] = tested on: MOLT-4
[4] = tested on: EKVX
[5] = tested on: 786-0
[6] = tested on: K562
[7] = tested on: LOX IMVI
[8] = tested on: MDA-N
[9] = tested on: Hs-578T
[10] = tested on: COLO 205
[11] = tested on: SW-620
[12] = tested on: SF-268
[13] = tested on: SK-OV-3
[14] = tested on: HOP-92
[15] = tested on: Malme-3M
[16] = tested on: SF-295
[17] = tested on: IGROV-1
[18] = tested on: TK-10
[19] = tested on: SK-MEL-28
[20] = tested on: U-251
[21] = tested on: A498
[22] = tested on: HCT-116
[23] = tested on: RXF 393
[24] = tested on: HT-29
[25] = tested on: NCI-H23
[26] = tested on: BT-549
[27] = tested on: NCI-H460
[28] = tested on: KM12
[29] = tested on: HCT-15
[30] = tested on: PC-3
[31] = tested on: OVCAR-5
[32] = tested on: MCF7
[33] = tested on: NCI-H226
[34] = tested on: NCI/ADR-RES
[35] = tested on: ACHN
[36] = tested on: T47D
[37] = tested on: CCRF-CEM
[38] = tested on: OVCAR-3
[39] = tested on: MDA-MB-435
[40] = tested on: SNB-19
[41] = tested on: OVCAR-8
[42] = tested on: SR
[43] = tested on: HL-60
[44] = tested on: M14
[45] = tested on: SK-MEL-5
[46] = tested on: CAKI-1
[47] = tested on: OVCAR-4
[48] = tested on: SK-MEL-2
[49] = tested on: A549
[50] = tested on: HOP-62
[51] = tested on: SF-539
[52] = tested on: UACC-257
[53] = tested on: RPMI-8226
[54] = tested on: SNB-75
[55] = tested on: SN12C
[56] = tested on: DU-145
[57] = tested on: UACC-62
[58] = tested on: UO-31
[59] = tested on: HCC 2998

Cc1ccc(S(=O)(=O)O)cc1.c1cc2c(c(NC3=NCCN3)c1)CCCC2
GI50 [1]: > 100 µM (inactive) | GI50 [2]: > 100 µM (inactive) | GI50 [3]: > 100 µM (inactive) | GI50 [4]: > 100 µM (inactive) | GI50 [5]: > 100 µM (inactive) | GI50 [6]: > 100 µM (inactive) | GI50 [7]: > 100 µM (inactive) | GI50 [8]: > 100 µM (inactive) | GI50 [9]: > 100 µM (inactive) | GI50 [10]: > 100 µM (inactive) | GI50 [11]: 56.2 µM (inactive) | GI50 [12]: > 100 µM (inactive) | GI50 [13]: > 100 µM (inactive) | GI50 [14]: > 100 µM (inactive) | GI50 [15]: > 100 µM (inactive) | GI50 [16]: > 100 µM (inactive) | GI50 [17]: > 100 µM (inactive) | GI50 [18]: > 100 µM (inactive) | GI50 [19]: > 100 µM (inactive) | GI50 [20]: > 100 µM (inactive) | GI50 [21]: > 100 µM (inactive) | GI50 [22]: > 100 µM (inactive) | GI50 [23]: > 100 µM (inactive) | GI50 [24]: 99.5 µM (inactive) | GI50 [25]: > 100 µM (inactive) | GI50 [26]: > 100 µM (inactive) | GI50 [27]: > 100 µM (inactive) | GI50 [28]: > 100 µM (inactive) | GI50 [29]: > 100 µM | GI50 [30]: > 100 µM (inactive) | GI50 [31]: > 100 µM (inactive) | GI50 [32]: > 100 µM (inactive) | GI50 [33]: > 100 µM (inactive) | GI50 [34]: > 100 µM (inactive) | GI50 [35]: > 100 µM (inactive) | GI50 [36]: > 100 µM (inactive) | GI50 [37]: > 100 µM (inactive) | GI50 [38]: > 100 µM (inactive) | GI50 [39]: > 100 µM (inactive) | GI50 [40]: > 100 µM (inactive) | GI50 [41]: > 100 µM (inactive) | GI50 [42]: > 100 µM (inactive) | GI50 [43]: > 100 µM (inactive) | GI50 [44]: > 100 µM (inactive) | GI50 [45]: > 100 µM (inactive) | GI50 [46]: > 100 µM (inactive) | GI50 [47]: > 100 µM (inactive) | GI50 [48]: > 100 µM (inactive) | GI50 [49]: > 100 µM (inactive) | GI50 [50]: > 100 µM (inactive) | GI50 [51]: > 100 µM (inactive) | GI50 [52]: > 100 µM (inactive) | GI50 [53]: > 100 µM (inactive) | GI50 [54]: 89.3 µM (inactive) | GI50 [55]: > 100 µM (inactive) | GI50 [56]: > 100 µM (inactive) | GI50 [57]: > 100 µM (inactive)

N=C(N)N/N=C(\c1ccc(Cl)cc1)C1CC1
GI50 [1]: 14.8 µM (inactive) | GI50 [2]: 18.5 µM (inactive) | GI50 [4]: 23.9 µM (inactive) | GI50 [5]: 16.9 µM (inactive) | GI50 [58]: 24.6 µM (inactive) | GI50 [6]: 34.8 µM (inactive) | GI50 [7]: 16.4 µM (inactive) | GI50 [8]: 16.1 µM (inactive) | GI50 [9]: 25 µM (inactive) | GI50 [10]: 17.2 µM (inactive) | GI50 [11]: 18.4 µM (inactive) | GI50 [12]: 28.9 µM (inactive) | GI50 [13]: 27.5 µM (inactive) | GI50 [14]: 22.3 µM (inactive) | GI50 [15]: 14.9 µM (inactive) | GI50 [16]: 21.3 µM (inactive) | GI50 [17]: 16.2 µM (inactive) | GI50 [18]: 16.3 µM (inactive) | GI50 [19]: 19.3 µM (inactive) | GI50 [20]: 14.2 µM (inactive) | GI50 [21]: 14.4 µM (inactive) | GI50 [22]: 16 µM (inactive) | GI50 [23]: 33.9 µM (inactive) | GI50 [24]: 16.5 µM (inactive) | GI50 [25]: 27.1 µM (inactive) | GI50 [26]: 24.6 µM (inactive) | GI50 [27]: 15.6 µM (inactive) | GI50 [28]: 18.5 µM (inactive) | GI50 [29]: 19 µM | GI50 [30]: 16.2 µM (inactive) | GI50 [31]: 17.9 µM (inactive) | GI50 [32]: 17.1 µM (inactive) | GI50 [33]: 16.3 µM (inactive) | GI50 [34]: 25.4 µM (inactive) | GI50 [35]: 21.8 µM (inactive) | GI50 [36]: 19.5 µM (inactive) | GI50 [38]: 19.4 µM (inactive) | GI50 [39]: 16.9 µM (inactive) | GI50 [40]: 29 µM (inactive) | GI50 [41]: 20.7 µM (inactive) | GI50 [42]: 11.4 µM (inactive) | GI50 [44]: 15.4 µM (inactive) | GI50 [45]: 15.6 µM (inactive) | GI50 [46]: 39 µM (inactive) | GI50 [47]: 33 µM (inactive) | GI50 [48]: 18.3 µM (inactive) | GI50 [49]: 32.4 µM (inactive) | GI50 [50]: 19 µM (inactive) | GI50 [51]: 17.2 µM (inactive) | GI50 [52]: 14.5 µM (inactive) | GI50 [53]: 18.5 µM (inactive) | GI50 [54]: 22.2 µM (inactive) | GI50 [59]: 7 µM (inactive) | GI50 [55]: 19.1 µM (inactive) | GI50 [56]: 22.6 µM (inactive) | GI50 [57]: 15.9 µM (inactive)
